The kinase profiling compilation of Christmann-Franck et al. (2016)

Experiments:
Assay in all cases: KINOMEscan competition binding
Settings in all cases: compound 1.0 µM
[1] = tested on: ABL1 (human), P00519 [E255K]
[2] = target: ABL2 (human) (UniProt P42684)
[3] = target: ACVRL1 (human) (UniProt P37023)
[4] = target: BLK (human) (UniProt P51451)
[5] = target: BMPR2 (human) (UniProt Q13873)
[6] = target: CDK16 (human) (UniProt Q00536)
[7] = target: CDKL2 (human) (UniProt Q92772)
[8] = target: CSK (human) (UniProt P41240)
[9] = target: CSNK1G3 (human) (UniProt Q9Y6M4)
[10] = target: CaMK1 (human) (UniProt Q14012)
[11] = tested on: EGFR (human), P00533 [G719S]
[12] = target: EPHB3 (human) (UniProt P54753)
[13] = target: ERBB2 (human) (UniProt P04626)
[14] = target: FGFR4 (human) (UniProt P22455)
[15] = target: GAK (human) (UniProt O14976)
[16] = tested on: KIT (human), P10721 [A829P]
[17] = target: LATS1 (human) (UniProt O95835)
[18] = target: MAP3K5 (human) (UniProt Q99683)
[19] = target: MAP3K6 (human) (UniProt O95382)
[20] = target: MAP3K7 (human) (UniProt O43318)
[21] = target: MAPK15 (human) (UniProt Q8TD08)
[22] = target: MAPK3 (human) (UniProt P27361)
[23] = target: MAPK8 (human) (UniProt P45983)
[24] = target: MARK4 (human) (UniProt Q96L34)
[25] = target: NEK5 (human) (UniProt Q6P3R8)
[26] = tested on: PIK3CA (human), P42336 [E545K]
[27] = target: PKN1 (human) (UniProt Q16512)
[28] = target: PKN2 (human) (UniProt Q16513)
[29] = target: PRKCD (human) (UniProt Q05655)
[30] = target: PRKX (human) (UniProt P51817)
[31] = target: PTK6 (human) (UniProt Q13882)
[32] = tested on: RET (human), P07949 [V804L]
[33] = target: RIOK2 (human) (UniProt Q9BVS4)
[34] = target: RIOK3 (human) (UniProt O14730)
[35] = target: RIPK1 (human) (UniProt Q13546)
[36] = target: RIPK2 (human) (UniProt O43353)
[37] = target: ROS1 (human) (UniProt P08922)
[38] = target: STK39 (human) (UniProt Q9UEW8)
[39] = target: TAOK2 (human) (UniProt Q9UL54)
[40] = target: TNK1 (human) (UniProt Q13470)
[41] = target: TSSK1B (human) (UniProt Q9BXA7)
[42] = target: ULK3 (human) (UniProt Q6PHR2)
[43] = target: VRK2 (human) (UniProt Q86Y07)

Sequence of GAK (human) (O14976 whole entry, looked up): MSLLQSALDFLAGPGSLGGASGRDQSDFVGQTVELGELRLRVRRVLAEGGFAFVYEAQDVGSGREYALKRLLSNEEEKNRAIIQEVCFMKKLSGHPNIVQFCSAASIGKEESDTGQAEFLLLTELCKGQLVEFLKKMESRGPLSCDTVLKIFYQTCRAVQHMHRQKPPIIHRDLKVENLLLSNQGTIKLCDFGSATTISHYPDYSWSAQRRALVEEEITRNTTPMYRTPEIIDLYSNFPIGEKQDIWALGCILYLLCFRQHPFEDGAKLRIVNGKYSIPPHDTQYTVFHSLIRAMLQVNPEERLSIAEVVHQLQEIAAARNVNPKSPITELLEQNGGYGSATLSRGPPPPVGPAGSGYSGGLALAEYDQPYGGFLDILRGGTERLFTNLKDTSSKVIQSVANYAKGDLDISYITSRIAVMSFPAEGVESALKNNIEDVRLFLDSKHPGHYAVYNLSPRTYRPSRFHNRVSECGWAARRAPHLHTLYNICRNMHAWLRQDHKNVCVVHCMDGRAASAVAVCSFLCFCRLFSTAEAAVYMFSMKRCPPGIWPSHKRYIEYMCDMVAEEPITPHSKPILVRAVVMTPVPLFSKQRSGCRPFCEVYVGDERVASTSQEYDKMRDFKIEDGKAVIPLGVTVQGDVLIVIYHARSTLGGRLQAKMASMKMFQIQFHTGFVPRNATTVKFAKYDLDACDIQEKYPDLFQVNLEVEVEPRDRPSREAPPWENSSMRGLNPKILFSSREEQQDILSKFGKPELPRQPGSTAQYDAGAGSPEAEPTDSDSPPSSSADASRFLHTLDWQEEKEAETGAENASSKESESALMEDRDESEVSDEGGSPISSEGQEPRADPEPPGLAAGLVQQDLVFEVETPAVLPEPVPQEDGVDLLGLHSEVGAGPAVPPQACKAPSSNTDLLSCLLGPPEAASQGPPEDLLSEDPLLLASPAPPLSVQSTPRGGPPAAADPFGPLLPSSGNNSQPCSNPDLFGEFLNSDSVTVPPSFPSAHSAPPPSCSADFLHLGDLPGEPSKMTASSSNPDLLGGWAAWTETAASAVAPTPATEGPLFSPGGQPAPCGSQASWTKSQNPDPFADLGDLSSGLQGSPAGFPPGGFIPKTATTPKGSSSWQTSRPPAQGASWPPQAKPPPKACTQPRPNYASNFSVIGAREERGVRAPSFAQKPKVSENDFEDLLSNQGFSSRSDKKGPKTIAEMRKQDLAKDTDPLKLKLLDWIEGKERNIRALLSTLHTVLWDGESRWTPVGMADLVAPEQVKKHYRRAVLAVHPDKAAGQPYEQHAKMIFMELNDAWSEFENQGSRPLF
Sequence of PKN1 (human) (Q16512 whole entry, looked up): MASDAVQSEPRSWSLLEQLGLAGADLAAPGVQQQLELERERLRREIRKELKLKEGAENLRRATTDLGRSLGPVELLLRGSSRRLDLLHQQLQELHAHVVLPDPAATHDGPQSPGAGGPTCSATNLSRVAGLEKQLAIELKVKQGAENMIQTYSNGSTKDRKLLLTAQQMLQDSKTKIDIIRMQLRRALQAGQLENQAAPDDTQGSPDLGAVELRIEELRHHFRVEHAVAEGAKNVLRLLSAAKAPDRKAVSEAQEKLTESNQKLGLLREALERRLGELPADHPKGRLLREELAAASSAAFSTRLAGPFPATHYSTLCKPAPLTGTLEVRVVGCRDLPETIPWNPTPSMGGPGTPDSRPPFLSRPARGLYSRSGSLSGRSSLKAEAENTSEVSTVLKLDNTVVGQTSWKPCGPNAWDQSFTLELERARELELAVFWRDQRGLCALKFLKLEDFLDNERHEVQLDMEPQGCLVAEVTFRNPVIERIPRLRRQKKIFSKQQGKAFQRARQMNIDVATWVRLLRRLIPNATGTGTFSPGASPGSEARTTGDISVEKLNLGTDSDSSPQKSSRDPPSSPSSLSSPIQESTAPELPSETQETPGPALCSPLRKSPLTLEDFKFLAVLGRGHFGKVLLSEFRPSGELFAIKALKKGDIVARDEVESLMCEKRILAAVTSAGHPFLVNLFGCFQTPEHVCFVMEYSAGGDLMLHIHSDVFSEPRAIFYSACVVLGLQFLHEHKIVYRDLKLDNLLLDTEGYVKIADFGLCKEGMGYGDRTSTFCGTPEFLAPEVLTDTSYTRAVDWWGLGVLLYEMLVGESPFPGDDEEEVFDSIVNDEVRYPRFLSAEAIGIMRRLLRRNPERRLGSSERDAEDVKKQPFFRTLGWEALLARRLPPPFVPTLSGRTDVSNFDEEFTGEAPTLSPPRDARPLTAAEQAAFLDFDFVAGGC
Sequence of PKN2 (human) (Q16513 whole entry, looked up): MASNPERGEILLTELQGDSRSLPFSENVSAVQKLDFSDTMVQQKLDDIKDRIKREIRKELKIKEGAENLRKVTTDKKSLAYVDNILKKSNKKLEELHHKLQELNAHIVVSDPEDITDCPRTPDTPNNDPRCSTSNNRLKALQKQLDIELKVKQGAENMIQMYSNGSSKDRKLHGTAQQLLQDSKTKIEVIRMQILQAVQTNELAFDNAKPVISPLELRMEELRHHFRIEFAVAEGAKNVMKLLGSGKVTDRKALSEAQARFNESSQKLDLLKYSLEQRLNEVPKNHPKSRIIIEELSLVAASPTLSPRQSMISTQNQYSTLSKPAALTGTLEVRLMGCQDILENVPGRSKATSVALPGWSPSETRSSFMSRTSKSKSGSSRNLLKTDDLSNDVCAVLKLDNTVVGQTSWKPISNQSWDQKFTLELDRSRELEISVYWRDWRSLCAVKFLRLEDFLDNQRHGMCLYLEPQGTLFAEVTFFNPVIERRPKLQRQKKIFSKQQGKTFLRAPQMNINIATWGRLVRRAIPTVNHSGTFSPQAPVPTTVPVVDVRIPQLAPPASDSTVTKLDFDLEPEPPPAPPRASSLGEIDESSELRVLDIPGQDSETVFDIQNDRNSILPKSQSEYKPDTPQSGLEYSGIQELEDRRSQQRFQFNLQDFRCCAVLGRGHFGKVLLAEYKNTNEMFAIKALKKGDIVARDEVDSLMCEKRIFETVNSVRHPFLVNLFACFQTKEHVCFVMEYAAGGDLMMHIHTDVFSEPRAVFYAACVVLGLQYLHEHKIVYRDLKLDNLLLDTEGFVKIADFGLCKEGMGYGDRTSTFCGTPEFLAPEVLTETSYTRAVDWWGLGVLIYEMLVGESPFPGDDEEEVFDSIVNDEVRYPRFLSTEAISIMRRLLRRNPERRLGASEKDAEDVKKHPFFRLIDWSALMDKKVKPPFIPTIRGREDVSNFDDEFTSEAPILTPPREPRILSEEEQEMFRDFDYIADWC
Sequence of RIOK2 (human) (Q9BVS4 whole entry, looked up): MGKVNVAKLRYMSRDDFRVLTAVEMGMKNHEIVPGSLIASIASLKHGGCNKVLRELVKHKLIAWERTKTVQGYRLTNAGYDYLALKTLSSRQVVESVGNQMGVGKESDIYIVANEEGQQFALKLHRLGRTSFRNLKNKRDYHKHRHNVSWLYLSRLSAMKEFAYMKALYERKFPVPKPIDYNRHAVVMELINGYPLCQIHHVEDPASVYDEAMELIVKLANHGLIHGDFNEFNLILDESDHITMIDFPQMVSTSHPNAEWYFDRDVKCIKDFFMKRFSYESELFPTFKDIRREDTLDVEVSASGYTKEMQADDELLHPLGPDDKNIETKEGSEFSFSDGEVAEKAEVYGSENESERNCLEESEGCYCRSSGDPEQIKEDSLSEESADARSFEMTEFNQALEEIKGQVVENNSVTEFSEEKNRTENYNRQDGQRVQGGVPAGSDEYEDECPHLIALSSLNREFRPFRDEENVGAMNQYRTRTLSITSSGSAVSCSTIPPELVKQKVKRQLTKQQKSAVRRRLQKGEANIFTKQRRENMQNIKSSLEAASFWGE
Sequence of MAP3K6 (human) (O95382 whole entry, looked up): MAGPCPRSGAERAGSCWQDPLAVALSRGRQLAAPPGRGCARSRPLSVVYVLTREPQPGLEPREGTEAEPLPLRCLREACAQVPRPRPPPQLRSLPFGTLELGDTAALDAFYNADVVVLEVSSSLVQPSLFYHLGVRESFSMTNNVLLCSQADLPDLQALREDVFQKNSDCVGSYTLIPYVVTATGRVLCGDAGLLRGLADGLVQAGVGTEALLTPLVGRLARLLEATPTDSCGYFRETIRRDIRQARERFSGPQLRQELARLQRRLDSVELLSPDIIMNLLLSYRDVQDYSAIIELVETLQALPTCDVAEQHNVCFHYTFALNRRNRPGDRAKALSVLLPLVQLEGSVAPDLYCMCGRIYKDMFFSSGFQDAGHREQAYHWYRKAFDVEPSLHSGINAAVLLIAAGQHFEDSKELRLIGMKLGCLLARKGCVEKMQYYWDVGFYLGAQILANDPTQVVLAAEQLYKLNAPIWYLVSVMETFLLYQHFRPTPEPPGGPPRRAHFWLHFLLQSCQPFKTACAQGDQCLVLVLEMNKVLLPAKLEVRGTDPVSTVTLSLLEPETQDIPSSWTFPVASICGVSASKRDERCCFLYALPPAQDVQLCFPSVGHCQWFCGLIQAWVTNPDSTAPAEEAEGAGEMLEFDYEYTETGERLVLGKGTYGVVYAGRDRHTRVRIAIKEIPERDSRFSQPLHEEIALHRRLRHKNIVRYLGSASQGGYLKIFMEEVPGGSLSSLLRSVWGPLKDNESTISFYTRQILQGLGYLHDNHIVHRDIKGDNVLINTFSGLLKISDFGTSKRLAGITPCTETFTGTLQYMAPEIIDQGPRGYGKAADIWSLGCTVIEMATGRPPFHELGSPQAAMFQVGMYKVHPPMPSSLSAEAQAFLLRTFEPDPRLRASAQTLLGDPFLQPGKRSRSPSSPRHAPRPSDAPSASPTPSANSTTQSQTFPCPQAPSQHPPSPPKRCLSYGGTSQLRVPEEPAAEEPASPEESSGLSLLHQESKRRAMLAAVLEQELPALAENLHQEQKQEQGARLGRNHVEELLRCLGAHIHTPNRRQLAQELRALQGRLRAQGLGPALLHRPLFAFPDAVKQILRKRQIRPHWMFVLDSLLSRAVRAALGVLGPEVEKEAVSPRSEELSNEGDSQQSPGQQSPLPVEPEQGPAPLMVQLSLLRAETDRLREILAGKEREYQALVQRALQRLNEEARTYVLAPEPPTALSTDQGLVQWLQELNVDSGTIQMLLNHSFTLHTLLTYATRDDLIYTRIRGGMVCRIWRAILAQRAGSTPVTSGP

Compound: COCCNCCCn1c(C(=O)CF)c(-c2ccc(C)cc2)c2c(N)ncnc21
- kinase still bound, per cent of control [1]: 90%
- kinase still bound, per cent of control [2]: 100%
- kinase still bound, per cent of control [3]: 100%
- kinase still bound, per cent of control [4]: 100%
- kinase still bound, per cent of control [5]: 72%
- kinase still bound, per cent of control [6]: 100%
- kinase still bound, per cent of control [7]: 87%
- kinase still bound, per cent of control [8]: 95%
- kinase still bound, per cent of control [9]: 98%
- kinase still bound, per cent of control [10]: 100%
- kinase still bound, per cent of control [11]: 90%
- kinase still bound, per cent of control [12]: 100%
- kinase still bound, per cent of control [13]: 100%
- kinase still bound, per cent of control [14]: 100%
- kinase still bound, per cent of control [15]: 100%
- kinase still bound, per cent of control [16]: 85%
- kinase still bound, per cent of control [17]: 100%
- kinase still bound, per cent of control [18]: 100%
- kinase still bound, per cent of control [19]: 100%
- kinase still bound, per cent of control [20]: 100%
- kinase still bound, per cent of control [21]: 96%
- kinase still bound, per cent of control [22]: 98%
- kinase still bound, per cent of control [23]: 96%
- kinase still bound, per cent of control [24]: 74%
- kinase still bound, per cent of control [25]: 100%
- kinase still bound, per cent of control [26]: 100%
- kinase still bound, per cent of control [27]: 100%
- kinase still bound, per cent of control [28]: 94%
- kinase still bound, per cent of control [29]: 90%
- kinase still bound, per cent of control [30]: 80%
- kinase still bound, per cent of control [31]: 90%
- kinase still bound, per cent of control [32]: 100%
- kinase still bound, per cent of control [33]: 100%
- kinase still bound, per cent of control [34]: 68%
- kinase still bound, per cent of control [35]: 100%
- kinase still bound, per cent of control [36]: 39%
- kinase still bound, per cent of control [37]: 100%
- kinase still bound, per cent of control [38]: 100%
- kinase still bound, per cent of control [39]: 100%
- kinase still bound, per cent of control [40]: 100%
- kinase still bound, per cent of control [41]: 100%
- kinase still bound, per cent of control [42]: 99%
- kinase still bound, per cent of control [43]: 100%
